Source: patent publication US6787569B1, “Therapeutic guanidines” (Cambridge NeuroScience, Inc., priority 1994, dated 2004)

Test system: depolarization-induced 3H-glutamate release from brain nerve terminals
Assay: Inhibition of 3H-glutamate release, high [K+] depolarization, rapid superfusion of synaptosomes
Assay type: biochemical
Conditions: rat brain synaptosomes; for % Inhibition of ^3H-Glu Rel @ 0.3 μM: 0.3 μM compound; for % Inhibition of ^3H-Glu Rel @ 1 μM: 1 μM compound; for % Inhibition of ^3H-Glu Rel @ 0.1 μM: 0.1 μM compound

CCC(C)c1ccc(N(Cc2ccc(C(C)(C)C)cc2)C(=N)Nc2ccc(Cl)c(Cl)c2)cc1.Cl (stereo not drawn) [Example 89, N-(4-sec-Butylphenyl)-N-(4-tert-butylbenzyl)-N′-(3,4-dichlorophenyl)guanidine.HCl]
% Inhibition of ^3H-Glu Rel @ 0.3 μM: 21%

CCCCCCc1ccc(N(Cc2ccc(C(C)(C)CCC)cc2)C(=N)Nc2ccccc2)cc1.Cl [Example 90, N-(4-Hexylphenyl)-N-(4-tert-hexylbenzyl)-N′-phenylguanidine.HCl]
% Inhibition of ^3H-Glu Rel @ 0.3 μM: 42%

CCC(C)c1ccc(N(Cc2ccc(C(C)(C)C)cc2)C(=N)Nc2ccc(OCc3ccccc3)cc2)cc1.CS(=O)(=O)O (stereo not drawn) [Example 91, N-(4-sec-Butylphenyl)-N-(4-tert-butylbenzyl)-N′-(4-benzyloxyphenyl)guanidine.mesylate]
% Inhibition of ^3H-Glu Rel @ 0.3 μM: 49%

CC(C)(C)c1ccc(NC(=N)Nc2ccc(OCc3ccccc3)cc2)cc1.Cl [Example 93, N-(4-Benzyloxyphenyl)-N′-(4-tert-butylphenyl)guanidine.HCl]
% Inhibition of ^3H-Glu Rel @ 0.3 μM: 48%
% Inhibition of ^3H-Glu Rel @ 1 μM: 91%

CN(C(=N)Nc1ccc(C(C)(C)C)cc1)c1ccc(OCc2ccccc2)cc1.CS(=O)(=O)O [Example 95, N-Methyl-N-4-benzyloxyphenyl-N′-(4-tert-butylphenyl)guanidin.mesylat]
% Inhibition of ^3H-Glu Rel @ 0.3 μM: 44%
% Inhibition of ^3H-Glu Rel @ 1 μM: 100%

CCCCCCc1ccc(NC(=N)Nc2ccc(CCCCCC)cc2)cc1.CS(=O)(=O)O [Example 96, N,N′-Bis-(4-Hexylphenyl)guanidine.mesylate]
% Inhibition of ^3H-Glu Rel @ 0.1 μM: 54%
% Inhibition of ^3H-Glu Rel @ 0.3 μM: 54%

CCOc1ccc(Cc2cccc(CCNC(=N)Nc3ccc(C(C)(C)C)cc3)c2)cc1.CS(=O)(=O)O [Example 97, N-(3-(1-(4′-Ethoxy)benzyl)phenethyl)-N′-(4-tert-butylphenyl)guanidine.mesylate]
% Inhibition of ^3H-Glu Rel @ 0.3 μM: 31%

CN(C(=N)Nc1ccc(OCc2ccccc2)cc1)c1ccc(C(C)(C)C)cc1.CS(=O)(=O)O [Example 98, N-(4-Benzyloxyphenyl)-N′-methyl-N′-(4-tert-butylphenyl)guanidine.mesylate]
% Inhibition of ^3H-Glu Rel @ 0.3 μM: 28%

CC(C)(C)c1ccc(COc2cccc(NC(=N)Nc3ccc(C(C)(C)C)cc3)c2)cc1.CS(=O)(=O)O [Example 99, N-(3-(4-tert-Butylbenzyloxy)phenyl)-N′-(4-tert-butylphenyl)guanidine.mesylate]
% Inhibition of ^3H-Glu Rel @ 0.3 μM: 20%

CCCC(Cc1ccccc1)c1cccc(NC(=N)Nc2ccc(C(C)(C)C)cc2)c1.CS(=O)(=O)O (stereo not drawn) [Example 100, N-(3-(1′-Benzylbutyl)phenyl)-N′-(4-tert-butylphenyl)guanidine.mesylate]
% Inhibition of ^3H-Glu Rel @ 0.3 μM: 20%

CCCCc1ccc(NC(=N)N(C)c2ccc(CCCC)cc2)cc1.Cl [Example 101, N,N′-Bis-(4-butylphenyl)-N-methylguanidine.HCl]
% Inhibition of ^3H-Glu Rel @ 0.3 μM: 35%

CN(C(=N)N(C)c1ccc(C(C)(C)C)cc1)c1ccc(C(C)(C)C)cc1.Cl [Example 102, N,N′-Bis-(4-tert-butylphenyl)-N,N′-dimethylguanidine.HCl]
% Inhibition of ^3H-Glu Rel @ 0.1 μM: 18%
% Inhibition of ^3H-Glu Rel @ 0.3 μM: 73%

CCCCc1ccc(NC(=N)N(CCCC)c2ccc(CCCC)cc2)cc1.Cl [Example 105, N,N′-Bis-(4-butylphenyl)-N-butylguanidine.HCl]
% Inhibition of ^3H-Glu Rel @ 0.1 μM: 24%
% Inhibition of ^3H-Glu Rel @ 0.3 μM: 86%

CCCCOc1ccc(NC(=N)Nc2ccc(C(C)(C)C)cc2)cc1OCCCC.O=C(O)C(=O)O [Example 107, N-(3,4-Bis-butyloxyphenyl)-N′-(4-tert-butylphenyl)guanidine.oxalate]
% Inhibition of ^3H-Glu Rel @ 0.3 μM: 34%

Br.CCCCOc1cc(NC(=N)Nc2ccc(OC)c(OCCCC)c2)ccc1OC [Example 109, N,N′-Bis-((3-butoxy-4-methoxy)phenyl)guanidine.HBr]
% Inhibition of ^3H-Glu Rel @ 0.3 μM: 86%

Br.N=C(Nc1ccc2c(c1)CCCC2)Nc1ccc2c(c1)CCCC2 [Example 111, N,N′-Bis-(6-tetralinyl)guanidine.HBr]
% Inhibition of ^3H-Glu Rel @ 0.3 μM: 61%
